# Laboratory results from ChEMBL document CHEMBL1153286, “Synthesis and biological evaluation of sulfonylurea and thiourea derivatives substituted with benzenesulfonamide groups as potential hypoglycemic agents” (Bioorg Med Chem Lett, 2009).
# Active and inactive are the calls of the source. The calls are words filed in the database; no cut-off is given here.
# Experiments:
# [1] = Antiplatelet activity in human platelets assessed as inhibition of arachidonic acid-induced platelet aggregation; assay type: functional, cell-based
# [2] = Increase in insulin release in rat pancreatic cells at 100 umol/L after 6 hrs by radioimmunoassay relative to basal level; assay type: functional
# Adipocyte [3] = test: Effect on 2-deoxy-D-[1-3H]glucose transport in Sprague-Dawley rat adipocytes at 10 uM in presence of insulin by liquid scintillation counting; assay type: functional
# Adipocyte [4] = test: Effect on 2-deoxy-D-[1-3H]glucose transport in Sprague-Dawley rat adipocytes at 10 uM in absence of insulin by liquid scintillation counting; assay type: functional
# Mus musculus [5] = test: Reduction of plasma glucose level in fasted C57BL/6J mouse at 2.5 mg/kg, po administered daily for 3 days measured on day 5 by glucose oxidase trinder method; assay type: functional, organism-based; parameters: dose 2.5 mg/kg
# [6] = Tmax in rat at 2.5 mg/kg, iv or 5 mg/kg, po; assay type: ADME, organism-based; details: in vivo
# [7] = Effect on insulin release in rat pancreatic cells at 10 umol/L after 6 hrs by radioimmunoassay; assay type: functional
# Adipocyte [8] = test: Effect on 2-deoxy-D-[1-3H]glucose transport in Sprague-Dawley rat adipocytes at 100 uM in presence of insulin by liquid scintillation counting; assay type: functional
# [9] = Oral bioavailability in rat at 5 mg/kg, po; assay type: ADME, organism-based; details: in vivo
# Adipocyte [10] = test: Effect on 2-deoxy-D-[1-3H]glucose transport in Sprague-Dawley rat adipocytes at 100 uM in absence of insulin by liquid scintillation counting; assay type: functional
# [11] = Cmax in rat at 2.5 mg/kg, iv or 5 mg/kg, po; assay type: ADME, organism-based; details: in vivo
# Mus musculus [12] = test: Protection against collagen-epinephrine-induced mortality in Chinese Kunming cerebral thrombosis mouse model assessed as survival rate at 40 mg/kg, po administered once daily for 7 days measured on day 7 within 15 mins of collagen-epinephrine challenge; assay type: functional
# Mus musculus [13] = test: Reduction of plasma glucose level in fasted C57BL/6J mouse at 7 mg/kg, po administered daily for 3 days measured on day 5 by glucose oxidase trinder method; assay type: functional, organism-based; parameters: dose 7 mg/kg
# [14] = Half life in rat at 2.5 mg/kg, iv; assay type: ADME, organism-based; parameters: dose 2.5 mg/kg, route intravenous; details: in vivo
# [15] = Half life in rat at 5 mg/kg, po; assay type: ADME, organism-based; parameters: dose 5 mg/kg, route oral; details: in vivo
# [16] = Clearance in rat at 2.5 mg/kg, iv or 5 mg/kg, po; assay type: ADME, organism-based; details: in vivo
# [17] = Antiplatelet activity in human platelets assessed as inhibition of ADP-induced platelet aggregation; assay type: functional, cell-based
# Mus musculus [18] = test: Protection against collagen-epinephrine-induced mortality in Chinese Kunming cerebral thrombosis mouse model assessed as survival rate at 20 mg/kg, po administered once daily for 7 days measured on day 7 within 15 mins of collagen-epinephrine challenge; assay type: functional
# Adipocyte [19] = test: Increase in glucose absorption in Sprague-Dawley rat adipocytes at 100 uM by liquid scintillation counting relative to basal level; assay type: functional
# Rattus norvegicus = test: AUC in rat at 5 mg/kg, po; assay type: ADME, organism-based, Plasma; parameters: dose 5 mg/kg, route oral; details: in vivo
# Mus musculus [20] = test: Protection against collagen-epinephrine-induced mortality in Chinese Kunming cerebral thrombosis mouse model assessed as survival rate at 10 mg/kg, po administered once daily for 7 days measured on day 7 within 15 mins of collagen-epinephrine challenge; assay type: functional
# Adipocyte [21] = test: Effect on 2-deoxy-D-[1-3H]glucose transport in Sprague-Dawley rat adipocytes at 1 uM in absence of insulin by liquid scintillation counting; assay type: functional
# [22] = Volume of distribution in rat at 2.5 mg/kg, iv or 5 mg/kg, po; assay type: ADME, organism-based; details: in vivo
# [23] = Effect on insulin release in rat pancreatic cells at 1 umol/L after 6 hrs by radioimmunoassay; assay type: functional
# Mus musculus [24] = test: Reduction of plasma glucose level in fasted C57BL/6J mouse at 20 mg/kg, po administered daily for 3 days measured on day 5 after 6 hrs by glucose oxidase trinder method; assay type: functional; parameters: scale not given: the % may be the effect or the level left
# Adipocyte [25] = test: Effect on 2-deoxy-D-[1-3H]glucose transport in Sprague-Dawley rat adipocytes at 1 uM in presence of insulin by liquid scintillation counting; assay type: functional
# [26] = Effect on insulin release in rat pancreatic cells at 100 umol/L after 6 hrs by radioimmunoassay; assay type: functional
smiles,measurement,setting,value
CC1CCC(NC(=O)NS(=O)(=O)c2ccc(CCNS(=O)(=O)c3ccc(Br)cc3)cc2)CC1 (configuration not stated),IC50,[1],0.21 µM
same,fold change (FC),[2],3.64
same,Activity,Adipocyte [3],7979.94 disintegrations/minute
same,Activity,Adipocyte [4],6512.65 disintegrations/minute
same,Activity,Mus musculus [5],Active
same,Tmax,[6],0.83 h
same,Activity,[7],65.21 uIU/ml
same,Activity,Adipocyte [8],8486.79 disintegrations/minute
same,bioavailability,[9],52.7%
same,Activity,Adipocyte [10],7674.84 disintegrations/minute
same,Cmax,[11],3330 ng/mL
same,survival at 40 mg/kg,Mus musculus [12],72.7%
same,Activity,Mus musculus [13],Active
same,half-life,[14],1.91 h
same,half-life,[15],1.77 h
same,clearance,[16],6 mL/min
same,IC50,[17],3 µM
same,survival at 20 mg/kg,Mus musculus [18],45.5%
same,fold change (FC),Adipocyte [19],1.73
same,AUC,Rattus norvegicus,10000 ng·h/mL
same,survival at 10 mg/kg,Mus musculus [20],27.3%
same,Activity,Adipocyte [21],4871.74 disintegrations/minute
same,Vd,[22],0.78 L/kg
same,Activity,[23],40.79 uIU/ml
same,Activity,Mus musculus [24],50%
same,Activity,Adipocyte [25],5996.43 disintegrations/minute
same,Activity,[26],86.08 uIU/ml
